Data published in US5942511A, “Allylthiopyridazine derivatives and process for preparing the same” (Kwon; Soon Kyoung, priority 1998, dated 1999).
Several values for one entry are separate records, joined by “and”; a condition that tells them apart may be missing. Equal values may be shown once.

Key:
hepatocyte necrosis = assay: Effect of inhibiting hepatic disorder induced by acetaminophen (APAP): hepatocyte necrosis; type: in vivo, male ICR mice; conditions: APAP model, 50 mg/kg per day oral, 3 days
Procedure: In the present invention, the inhibiting effect of the compound of formula (I) on hepatic disorder, induced by carbon tetrachloride and acetaminophene, was determined after oral administration of the novel compound according to the present invention to mouse as the experimental animal for 3 days. The degree of liver damage in respective experimental animal was determined by measuring ALT and LDH levels in blood [see, Biol. Pharm. Bull., 20, 4, 381-385, 1997; Toxicology and Applied Pharmacology, 95, 1-11, 1988], and further by removing the liver, staining (×100) the liver with hematoxylin and eosin and then observing with microscope to examine the degree of hepatocyte necrosis.
In addition, liver was removed from the test animals, stained (×100) with hematoxylin and eosin and then observed by microscope. The degree of hepatocyte necrosis was evaluated according to the following 5 grades: 0 no lesion, 1 mild lesion, 2 moderate lesion, 3 severe lesion and 4 diffused lesion.
The liver protective effect of the compound according to the present invention was examined according to the known method [see, Wang et al., Toxicology and applied Pharmacology, 136, 146-154, 1996] as specifically described below.
The compound according to the present invention was suspended in corn oil and the resulting suspension was administered in an amount of 1.0 ml/kg. Each group was composed of 3 to 10 male ICR mice (5-6 weeks) and the test compound was orally administered for 3 days in the dose of 50 mg/kg per day. After 2 hours from the last administration of the test compound, acetaminophen was orally administered in an amount of 0.5 g/kg. In this experiment, silymarin was used as the comparative compound. After 22 hours from the administration of acetaminphen, blood was taken from the individual test animal and ALT and LDH values in serum were determined. The results as obtained are described in the following Tables 4 and 5 (in which ALT and LDH values are represented by mean±SE). In addition, liver was removed from the test animals and then observed according to the same manner as Experiment 3 to evaluate the degree of hepatocyte necrosis.

radiation damage = assay: Protective effect against radiation damage: survival of mouse; type: in vivo, male ICR mouse; conditions: 100 mg/kg per day, 2 days
Text: Further, the present inventors have confirmed the protective effect of allylthiopyridazine derivative according to the present invention against radiation by administering the active compound to mouse, irradiating the radiation of 8 or 9Gy and, after a certain period, measuring the survival rate of mouse. For example, the survival rate during 30 days of 8Gy radiation can be seen from FIG. 3, and the specific experimental result is described in the following Table 7. Specifically, when 8Gy radiation is used, the survival rate during 30 days in the groups which only radiation was used was merely 48%, whereas the survival rates during 30 days in the groups to which the compounds of Examples 4 and 8 are previously administered were 76% and 70%, respectively. Therefore, it can be noted that the protective effect of the compound according to the present invention against radiation is proven to be a very significant novel discovery.
Protective effect against radiation damage
In order to confirm the protective effect of the compound of the present invention against radiation damage, the following test was conducted.
Male ICR mouse was bred in a chamber to which sterile atmosphere is supplied, at inner temperature 20-23° C. and relative humidity 50% with sufficient water and feed. When the weight of mouse reached 20-25 g, the compound of the present invention was suspended in corn oil and then administered for 2 days in the dose of 100 mg/kg (1 ml/kg) per day. After 3 hours from the last administration of the test compound, 8 or 9 Gy radiation was irradiated to mouse. Specifically, mouse was introduced into a box made of acryl which limited his movement, and then radiation produced from ^60 Co radioactive material was irradiated to whole body at the irradiating rate of 115.8 cGy/min. The dimension of acryl box was 31×31 cm^2, which is the same as the irradiating area of radiation. After 7 days of irradiation of γ-ray, mouse was sacrificed to conduct the histopathologic observation. The result of examining the survival rate during 30 days of irradiation of 8 Gy radiation is shown in FIG. 3, and the result of determining the survival rate after a certain period (10, 13 or 30 days) from irradiation of 8 or 9 Gy radiation is described in the following Table 7.

Question: For `C=CCSc1ccc(OC)nn1` [Example 4, 3-methoxy-6-allylthiopyridazine], which “Degree of necrosis 0: number of animals” value (hepatocyte necrosis; grade 0 no lesion) is on record?
Answer: The value was 5.

Question: And the “Degree of necrosis 1: number of animals” value (hepatocyte necrosis; grade 1 mild lesion)?
Answer: Its value is 4.

Question: And the “Degree of necrosis 2: number of animals” value (hepatocyte necrosis; grade 2 moderate lesion)?
Answer: The value was 1.

Question: What about the “Degree of necrosis 3: number of animals” value (hepatocyte necrosis; grade 3 severe lesion) of the same compound?
Answer: The value was 0.

Question: And the “Degree of necrosis 4: number of animals” value (hepatocyte necrosis; grade 4 diffused lesion)?
Answer: The value was 0.

Question: What about the survival number (radiation damage; 10 days of 9 Gy radiation) of the same compound?
Answer: Its survival number is 16/23.

Question: And the survival rate (radiation damage; 10 days of 9 Gy radiation)?
Answer: The survival rate was 70%.

Question: And the survival number (radiation damage; 13 days of 9 Gy radiation)?
Answer: The survival number was 3/23.

Question: What about the survival rate (radiation damage; 13 days of 9 Gy radiation) of the same compound?
Answer: Its survival rate is 13%.

Question: And the survival number (radiation damage; 30 days of 8 Gy radiation)?
Answer: Its survival number is 18/23.

Question: And the survival rate (radiation damage; 30 days of 8 Gy radiation, 100 mg/kg/day)?
Answer: Its survival rate is 78% and 76%.
